Test: Pharmacokinetics of etonogestrel esters in the rabbit after one i.m. injection; plasma etonogestrel by LC-MSMS
Type: in vivo
Protocol: For the determination of the pharmacokinetic profile of the different etonogestrel-esters after parenteral application, i.m. application in the castrated rabbit model was chosen instead of s.c. Briefly, rabbits were injected once (day 1) with indicated etonogestrel-esters at 20 mg/kg in arachis oil (with a concentration of 40 mg/ml). At day 1, 2, 3, 4, 5, 6, 7, 8, 10, 12, 14, 21, 28, 35, 49, 63, 77, 92, 106, 120 and 133 blood was collected from the ear arteria, in EDTA-containing tubes. EDTA plasma was prepared (1500 g, 15 min) and stored at −20° C. With LC-MSMS the amount of parent compound (etonogestrel) was determined in these samples. The lower limit of this new assay is 0.5 nmol/l, from 0-250 nmol/l a linear curve was obtained with a correlation coefficient of 0,9998.

[1] = one i.m. injection, 20 mg/kg in arachis oil
[2] = one i.m. injection, 20 mg/kg in arachis oil, parent etonogestrel measured

| SMILES | time of initial peak level of etonogestrel [1] | initial peak level of etonogestrel in plasma [2] | further results |
| --- | --- | --- | --- |
| C#C[C@]1(OC(=O)CCCCCCCCCC)CC[C@H]2[C@@H]3CCC4=CC(=O)CC[C@@H]4[C@H]3C(=C)C[C@@]21CC [etonogestrel undecanoate] | eight | 13 nmol/L | duration of action (etonogestrel level above 1 nmol/l) [1]: more than 92 days |
| C#C[C@]1(O)CC[C@H]2[C@@H]3CCC4=CC(=O)CC[C@@H]4[C@H]3C(=C)C[C@@]21CC [etonogestrel, (17α)-13-ethyl-17-hydroxy-11-methylene-18,19-dinorpregn-4-en-20-yn-3-one] | – | – | initial peak level of etonogestrel in plasma (in vivo, 20 mg/kg): 200 nmol/L; time in which etonogestrel levels declined to below 1 nmol/l (in vivo, 20 mg/kg): 28 days |
| C#CC1(OC(=O)CCCCCCCCC)CCC2C3CCC4=CC(=O)CCC4C3C(=C)CC21CC (stereo not shown) [etonogestrel decanoate] | 5 days | 24 nmol/L | – |
| C#C[C@]1(OC(=O)CCCCCCCCCCC)CC[C@H]2[C@@H]3CCC4=CC(=O)CC[C@@H]4[C@H]3C(=C)C[C@@]21CC [etonogestrel dodecanoate] | 8 days | 9 nmol/L | – |
| C#C[C@]1(OC(=O)CCCCCCCCCCCC)CC[C@H]2[C@@H]3CCC4=CC(=O)CC[C@@H]4[C@H]3C(=C)C[C@@]21CC [etonogestrel tridecanoate] | – | – | initial peak levels of etonogestrel (in words) [1]: no initial levels of etonogestrel were observed |
| C#C[C@]1(OC(=O)CCCCCC)CC[C@H]2[C@@H]3CCC4=CC(=O)CC[C@@H]4[C@H]3C(=C)C[C@@]21CC [Etonogestrel-heptanoate] | – | 120 nmol/L | – |
| C#C[C@]1(OC(=O)CCCCCCCC)CC[C@H]2[C@@H]3CCC4=CC(=O)CC[C@@H]4[C@H]3C(=C)C[C@@]21CC [Etonogestrel nonanoate] | – | – | duration with serum levels of etonogestrel above 1 nmol/l (in words) [1]: extended duration; initial peak levels of etonogestrel (in words) [1]: lower peak levels |
